Among the data in patent US8357833B2, “Corn plants and seed enhanced for asparagine and protein” (priority 2007, dated 2013) are Km values, retold here.

The target of assay [1] is T1, Zea mays asparagine synthetase Zm AsnS3 (SEQ ID NO: 6, encoded by SEQ ID NO: 5) (Zea mays, UniProt B5U8J8).
T1 construct: 588 aa
T1 sequence (B5U8J8 1-588): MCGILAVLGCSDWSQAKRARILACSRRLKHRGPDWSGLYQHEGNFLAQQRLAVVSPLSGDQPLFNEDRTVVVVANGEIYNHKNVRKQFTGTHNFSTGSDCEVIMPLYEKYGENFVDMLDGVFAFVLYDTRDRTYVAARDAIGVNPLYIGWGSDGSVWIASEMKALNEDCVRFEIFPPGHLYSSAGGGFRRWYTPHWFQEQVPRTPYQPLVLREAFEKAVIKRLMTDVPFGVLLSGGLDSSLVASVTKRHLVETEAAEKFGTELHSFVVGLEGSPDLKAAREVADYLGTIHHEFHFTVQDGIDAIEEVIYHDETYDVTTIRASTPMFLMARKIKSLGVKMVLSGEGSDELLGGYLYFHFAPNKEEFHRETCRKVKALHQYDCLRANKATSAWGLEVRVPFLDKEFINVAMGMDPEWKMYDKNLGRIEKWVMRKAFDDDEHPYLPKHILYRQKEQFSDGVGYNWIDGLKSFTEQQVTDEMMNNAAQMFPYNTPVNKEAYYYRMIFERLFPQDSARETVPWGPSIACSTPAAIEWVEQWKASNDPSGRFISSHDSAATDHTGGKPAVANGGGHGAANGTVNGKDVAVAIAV
Description: Kinetics of recombinant his-tagged, refolded maize asparagine synthetase AsnS3 (substrate titration, asparagine by HPLC). It is filed as biochemical. As to conditions: 100 mM Hepes, pH 8.0, 10 mM MgCl2, read-out: Km(NH4^+). How it is done: (§1) The effect of expression of asparagine synthetase genes on asparagine synthetase activity was measured in transgenic events of pMON79706 and pMON92870. Frozen, ground leaf tissue was aliquoted (200-400 mg) into wells from a precooled 96 deep-well plate. Protein was extracted in Buffer A (100 mM Hepes-OH, pH 8.0, 0.1 mM EDTA, 10 mM MgCl2, 2 mM aspartate, 0.5 mM DTT, 67 mM mercaptoethanol, 20% (v/v) glycerol, 0.1 mM ATP, 1% (v/v) P9599 (Sigma Company), 25 mM KCl). A small amount of sand was added to each well. Buffer A was then added to the leaf tissue in the wells at a ratio of 4:1 (buffer:tissue). The plates were then agitated in a paint shaker for 2 min. to mix the sample and then centrifuged at 5000×g for 10 minutes. The supernatant (100-200 μL) was desalted in a 96-well macro spin plate (SNS S025L, The Nest Group Inc., Southboro, Mass.) equilibrated in buffer A. The supernatant was then either assayed immediately or frozen in liquid nitrogen and maintained at −80° C. until used. […] The mixture was then filtered to remove precipitate and asparagine was measured by HPLC. […]

For assay [2], the target named is T2, Zea mays asparagine synthetase Zm AsnS1 (SEQ ID NO: 2, encoded by SEQ ID NO: 1) (Zea mays, UniProt B4FFJ0).
T2 sequence (B4FFJ0 with tags, fused parts or gaps): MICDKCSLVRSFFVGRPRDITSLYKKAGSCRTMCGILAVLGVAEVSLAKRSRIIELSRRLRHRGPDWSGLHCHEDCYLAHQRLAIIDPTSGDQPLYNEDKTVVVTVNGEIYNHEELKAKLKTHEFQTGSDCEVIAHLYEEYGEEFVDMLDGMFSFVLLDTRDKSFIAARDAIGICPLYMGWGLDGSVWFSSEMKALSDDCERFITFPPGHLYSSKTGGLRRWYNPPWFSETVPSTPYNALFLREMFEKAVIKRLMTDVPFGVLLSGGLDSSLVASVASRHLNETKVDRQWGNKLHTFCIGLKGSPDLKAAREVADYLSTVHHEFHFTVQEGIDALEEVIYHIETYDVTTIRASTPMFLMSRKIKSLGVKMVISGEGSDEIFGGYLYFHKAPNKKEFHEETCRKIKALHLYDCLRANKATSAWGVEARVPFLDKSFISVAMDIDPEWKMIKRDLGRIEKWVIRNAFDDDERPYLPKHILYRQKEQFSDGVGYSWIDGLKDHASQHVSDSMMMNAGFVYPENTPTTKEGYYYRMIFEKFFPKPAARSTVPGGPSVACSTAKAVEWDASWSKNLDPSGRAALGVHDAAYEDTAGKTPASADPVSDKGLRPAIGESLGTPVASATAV
Description: Kinetics of recombinant his-tagged, refolded maize asparagine synthetase AsnS1 (substrate titration, asparagine by HPLC). It is filed as biochemical. As to conditions: 100 mM Hepes, pH 8.0, 10 mM MgCl2, read-out: Km(NH4^+). As for the experimental part:
as §1

In the case of `N` [NH4^+], the Michaelis-Menten constant (Km) in assay [1] amounted to 8.4 mM; in assay [2], 9.9 mM.

By Km is commonly meant the concentration of substrate that gives half-maximal velocity.
